Legend:
Format in all cases: biochemical
Details in all cases: experimental data or published literature, primary rat hepatocyte cultures
[1] = test system: k Ca2+/Na+; assay: Observed % change in k Ca2+/Na+
[2] = test system: k proton leak; assay: Observed % change in k proton leak
Description: (§1) Liver specific cells or cell-lines are treated with known doses of drugs or toxicants. Upon treatment, the cells are harvested and cellular extracts prepared. In these extracts, the drug-induced alterations in metabolite profiles can be obtained by any technique such as biochemical assays, mass spectrometry, NMR or any other technique for obtaining metabolite profile known in the art. These are then compared with values obtained in the absence of the drug. Metabolites with significant alterations from their untreated values are identified. This generates what is referred to as altered metabolites 1.
(§2) All metabolite profiles upon drug treatment are obtained experimentally from primary rat hepatocyte cultures. The drug-induced metabolite profiles are then compared with those from untreated cells to obtain altered metabolites 1. The CMA-ES procedure described above is applied wherein, an initial population of 40 randomly generated parameter sets with fitness criteria of 10^−8 is used and the set of likely altered parameters are estimated for the following drugs. Further, a set of biochemical assays are carried out wherever possible to experimentally measure the level of parameter alteration.
(§3) For the validation of this disclosure, biochemical enzymatic assays are used. However, methods such as NMR, or mass spectrometry can also be used for metabolite data collection. […]

[3] = test system: Carnitine palmitoyl transferase; assay: Observed % change in carnitine palmitoyl transferase
Description: as §1, §2, §3

[4] = test system: Glutathione reductase (mitochondrial); assay: Observed % change in glutathione reductase (mitochondrial)
Description: as §1, §2, §3

[5] = test system: Glutathione peroxidase (cytosolic); assay: Observed % change in glutathione peroxidase (cytosolic)
Description: as §1, §2, §3

[6] = test system: fof1ATPase; assay: Observed % change in concentration of fof1ATPase
Description: as §1, §2, §3

[7] = test system: Glutathione peroxidase (mitochondrial); assay: Observed % change in glutathione peroxidase (mitochondrial)
Description: as §1, §2, §3

[8] = test system: Glutathione reductase (cytosolic); assay: Observed % change in glutathione reductase (cytosolic)
Description: as §1, §2, §3

[9] = test system: Gamma glutamyl cysteine synthetase; assay: Observed % change in gamma glutamyl cysteine synthetase
Description: as §1, §2, §3

[10] = test system: Influx of fatty acids; assay: Observed % change in influx of fatty acids, drug-treated hepatocytes
Description: as §1, §2, §3

SMILES | k Ca2+/Na+, observed % change [1] [%] | k proton leak, observed % change [2] [%] | Carnitine palmitoyl transferase, observed % change [3] [%] | Glutathione reductase (mitochondrial), observed % change [4] [%] | Glutathione peroxidase (cytosolic), observed % change [5] [%] | Concentration_of_fof1ATPase, observed % change [6] [%] | Glutathione peroxidase (mitochondrial), observed % change [7] [%] | Glutathione reductase (cytosolic), observed % change [8] [%] | Gamma glutamyl cysteine synthetase, observed % change [9] [%] | Influx of fatty acids, observed % change [10] [%]
O=C(O)Cc1ccccc1Nc1c(Cl)cccc1Cl [Diclofenac] | 900.00 | 400.00 | 0.00 | 20.00 | 7.00 | −22.00 | 21.00 | 360.00 | 0.00 | −9.00
CCCC(CCC)C(=O)O [Valproic acid] | 900.00 | 400.00 | −70.00 | −60.00 | −22.00 | −1.00 | −44.00 | 40.00 | −53.00 | −36.00
